# Test system: cat's oral microbiome
# Assay: Microbial diversity metrics in sequential oral samples of a cat after a dental procedure with cefovecin sodium
# Format: in vivo
# Details: tooth extraction and cefovecin sodium; for PD Evenness: Before 0.53; for HA Evenness: Before 0.62; for PD/HA Evenness: Before 0.85; for PD/HA Diversity: Before 1.21; for PD/HA Richness: Before 1.32; for HA Diversity: Before 1.87; for PD Diversity: Before 2.26; for Pathobiont Richness: Before 3; for HA Richness: Before 31; for PD Richness: Before 41
# Method: Alpha diversity metrics (Amplified Sequence Variant Richness, Shannon Diversity, and Pielou's Evenness) were calculated for a subset of periodontal disease-associated bacteria (PD) and a subset of health-associated bacteria (HA). The range for PD richness in healthy cats and dogs is 0-39. The range for health richness in healthy cats and dogs is 20-50. For comparison, oral health of each individual was also assessed by examination by a veterinary technician and or a veterinarian and observations of oral health and breath were record as shown in the table below.
# Microbial diversity metrics were assessed for three sequential samples collected from a cat with advanced periodontal disease with tooth resorption prior to a dental cleaning to remove calculus, tooth extraction, and treatment with cefovecin sodium, a broad-spectrum antibiotic. Microbial diversity measures for samples collected from a cat with advanced periodontal disease with tooth resorption prior to a dental procedure that included cleaning to remove calculus, tooth extraction, and antibiotic treatment. Samples were collected by swabbing the area between the gingival sulcus and the gingival margin and were sequenced using the Illumina MiniSeq. […] At five weeks after, PD richness had increased but PD diversity had decreased, likely driven by a reduction in evenness. At five weeks after, for HA microbes, there were increases in richness, diversity, and evenness, and the PD/HA ratios for richness and diversity had decreased. Thus, this cat's oral microbiome began to show signs of recovery in a sample collected five weeks later.
# [1] = Five weeks after dental cleaning
# [2] = Two weeks after dental cleaning
smiles,measurement,setting,value
CO/N=C(/C(=O)N[C@@H]1C(=O)N2C(C(=O)[O-])=C([C@@H]3CCCO3)CS[C@H]12)c1csc(N)n1.[Na+] [cefovecin sodium],PD Evenness,[1],0.62
same,HA Evenness,[1],0.58
same,PD/HA Evenness,[1],1.07
same,PD/HA Diversity,[1],1.15
same,PD/HA Richness,[1],0.92
same,HA Diversity,[1],1.62
same,PD Diversity,[1],1.86
same,Pathobiont Richness,[1],2
same,HA Richness,[1],25
same,PD Richness,[1],23
same,PD Evenness,[2],0.74
same,HA Evenness,[2],0.43
same,PD/HA Evenness,[2],1.72
same,PD/HA Diversity,[2],1.95
same,PD/HA Richness,[2],1.46
same,HA Diversity,[2],1.11
same,PD Diversity,[2],2.17
same,Pathobiont Richness,[2],2
same,HA Richness,[2],13
same,PD Richness,[2],19

# From patent US20230016526A1, “SYSTEM AND METHODS FOR MANIPULATION OF THE ORAL MICROBIOME IN MAMMALS” (ANIMAL MICROBIOME ANALYTICS, INC. (D/B/A ANIMALBIOME), priority 2019, published 2023)
